In PubChem BioAssay (NCI):
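Test compounds were applied to cells in 96-well plates for 48 hours at 5 doses. TGI marks complete inhibition of growth.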

Assays:
Experiment in all cases: NCI anticancer screen, dose series, 48 h
[1] = tested on: HT29 colon
[2] = tested on: CAKI-1 renal
[3] = tested on: HCC-2998 colon
[4] = tested on: A549 NSCLC
[5] = tested on: SR leukemia
[6] = tested on: SW-620 colon
[7] = tested on: SNB-75 CNS
[8] = tested on: MDA-MB-231 breast
[9] = tested on: 786-0 renal
[10] = tested on: MDA-MB-435
[11] = tested on: EKVX NSCLC
[12] = tested on: IGROV1 ovarian
[13] = tested on: PC-3 prostate
[14] = tested on: LOX IMVI melanoma
[15] = tested on: OVCAR-3 ovarian
[16] = tested on: DU-145 prostate
[17] = tested on: HL-60(TB) leukemia
[18] = tested on: OVCAR-4 ovarian
[19] = tested on: KM12 colon
[20] = tested on: SK-MEL-2 melanoma
[21] = tested on: NCI-H522 lung
[22] = tested on: NCI-H226 lung
[23] = tested on: OVCAR-8 ovarian
[24] = tested on: HOP-62 NSCLC
[25] = tested on: MOLT-4 leukemia
[26] = tested on: UACC-257 melanoma
[27] = tested on: HCT-15 colon
[28] = tested on: NCI-H23 lung
[29] = tested on: TK-10 renal
[30] = tested on: T-47D breast
[31] = tested on: K-562 leukemia
[32] = tested on: M14 melanoma
[33] = tested on: A498 renal
[34] = tested on: HS 578T breast
[35] = tested on: MCF7 breast
[36] = tested on: SK-MEL-28 melanoma
[37] = tested on: HCT-116 colon
[38] = tested on: SF-539 CNS
[39] = tested on: UO-31 renal
[40] = tested on: NCI-H460 lung
[41] = tested on: HOP-92 NSCLC
[42] = tested on: U251 CNS
[43] = tested on: OVCAR-5 ovarian
[44] = tested on: NCI/ADR-RES ovarian
[45] = tested on: ACHN renal
[46] = tested on: RXF 393 renal
[47] = tested on: SK-MEL-5 melanoma
[48] = tested on: BT-549 breast
[49] = tested on: SF-268 CNS
[50] = tested on: MDA-N
[51] = tested on: RPMI-8226 leukemia
[52] = tested on: SF-295 CNS
[53] = tested on: SNB-19 CNS
[54] = tested on: MALME-3M melanoma
[55] = tested on: UACC-62 melanoma
[56] = tested on: COLO 205 colon
[57] = tested on: SK-OV-3 ovarian
[58] = tested on: CCRF-CEM leukemia
[59] = tested on: SN12C renal

Question: Which TGI [1] does the source give for C/C=C(\C)[C@@H](O)C(=O)O[C@@H]1CC(C(C)(C)O)[C@](C)(CCC(=O)OC)[C@H]2[C@H](OC(=O)[C@H](O)[C@H](C)CC)C[C@]3(C)C(=CC[C@H]3[C@H]3CO[C@H](C=C(C)C)C3)[C@]12C (stereo partly drawn) here?
Answer: 34.5 µM

Question: What about the TGI [2] of the same compound?
Answer: 87.2 µM

Question: And the TGI [3]?
Answer: 29.7 µM

Question: What about the TGI [4] of the same compound?
Answer: 61.7 µM

Question: What about the TGI [5] of the same compound?
Answer: 40.2 µM

Question: What about the TGI [6] of the same compound?
Answer: 58 µM

Question: And the TGI [7]?
Answer: 37.6 µM

Question: What about the TGI [8] of the same compound?
Answer: 38.4 µM

Question: And the TGI [9]?
Answer: 29.5 µM

Question: What about the TGI [10] of the same compound?
Answer: 52.5 µM

Question: What about the TGI [11] of the same compound?
Answer: 29.8 µM

Question: And the TGI [12]?
Answer: > 100 µM

Question: And the TGI [13]?
Answer: 34.9 µM

Question: What about the TGI [14] of the same compound?
Answer: 31.4 µM

Question: And the TGI [15]?
Answer: 44.2 µM

Question: And the TGI [16]?
Answer: 98.5 µM

Question: What about the TGI [17] of the same compound?
Answer: 40.6 µM

Question: What about the TGI [18] of the same compound?
Answer: 41.8 µM

Question: And the TGI [19]?
Answer: 65.3 µM

Question: What about the TGI [20] of the same compound?
Answer: 32.4 µM

Question: And the TGI [21]?
Answer: 29.5 µM

Question: And the TGI [22]?
Answer: 50.9 µM

Question: And the TGI [23]?
Answer: 33.9 µM

Question: What about the TGI [24] of the same compound?
Answer: > 100 µM

Question: What about the TGI [25] of the same compound?
Answer: 48.2 µM

Question: And the TGI [26]?
Answer: 49.9 µM

Question: What about the TGI [27] of the same compound?
Answer: 37.4 µM

Question: What about the TGI [28] of the same compound?
Answer: 37.7 µM

Question: And the TGI [29]?
Answer: 61.7 µM

Question: And the TGI [30]?
Answer: 87.1 µM

Question: And the TGI [31]?
Answer: 42.4 µM

Question: And the TGI [32]?
Answer: 32.8 µM

Question: What about the TGI [33] of the same compound?
Answer: 60.2 µM

Question: What about the TGI [34] of the same compound?
Answer: 41 µM

Question: What about the TGI [35] of the same compound?
Answer: 42.1 µM

Question: And the TGI [36]?
Answer: 40.3 µM

Question: And the TGI [37]?
Answer: 31.9 µM

Question: What about the TGI [38] of the same compound?
Answer: 35.8 µM

Question: What about the TGI [39] of the same compound?
Answer: 33.5 µM

Question: What about the TGI [40] of the same compound?
Answer: 38.6 µM

Question: What about the TGI [41] of the same compound?
Answer: 71.7 µM

Question: What about the TGI [42] of the same compound?
Answer: 33.4 µM

Question: What about the TGI [43] of the same compound?
Answer: 43.2 µM

Question: And the TGI [44]?
Answer: 30.5 µM

Question: What about the TGI [45] of the same compound?
Answer: 34.1 µM

Question: And the TGI [46]?
Answer: 32.9 µM

Question: And the TGI [47]?
Answer: 33.2 µM

Question: What about the TGI [48] of the same compound?
Answer: 32.7 µM

Question: What about the TGI [49] of the same compound?
Answer: 36.8 µM

Question: And the TGI [50]?
Answer: 35.4 µM

Question: What about the TGI [51] of the same compound?
Answer: 38.3 µM

Question: And the TGI [52]?
Answer: > 100 µM

Question: Which results are given for CC(C)OC(=O)[C@@H]1OC(C)(C)O[C@H]1C(=O)OC(C)C?
Answer: TGI [1]: > 100 µM; TGI [2]: > 100 µM; TGI [3]: > 100 µM; TGI [4]: > 100 µM; TGI [5]: > 100 µM; TGI [6]: > 100 µM; TGI [7]: > 100 µM; TGI [8]: > 100 µM; TGI [9]: > 100 µM; TGI [10]: > 100 µM; TGI [11]: > 100 µM; TGI [12]: > 100 µM; TGI [13]: > 100 µM; TGI [14]: > 100 µM; TGI [53]: > 100 µM; TGI [16]: > 100 µM; TGI [18]: > 100 µM; TGI [19]: > 100 µM; TGI [20]: > 100 µM; TGI [21]: > 100 µM; TGI [54]: > 100 µM; TGI [22]: > 100 µM; TGI [23]: > 100 µM; TGI [24]: > 100 µM; TGI [25]: > 100 µM; TGI [55]: > 100 µM; TGI [26]: > 100 µM; TGI [27]: > 100 µM; TGI [28]: > 100 µM; TGI [29]: > 100 µM; TGI [56]: > 100 µM; TGI [30]: > 100 µM; TGI [57]: > 100 µM; TGI [31]: > 100 µM; TGI [58]: > 100 µM; TGI [33]: > 100 µM; TGI [34]: > 100 µM; TGI [35]: > 100 µM; TGI [37]: > 100 µM; TGI [38]: > 100 µM; TGI [39]: > 100 µM; TGI [40]: > 100 µM; TGI [41]: > 100 µM; TGI [42]: > 100 µM; TGI [43]: > 100 µM; TGI [44]: > 100 µM; TGI [59]: > 100 µM; TGI [45]: > 100 µM; TGI [46]: > 100 µM; TGI [47]: > 100 µM; TGI [48]: > 100 µM; TGI [49]: > 100 µM; TGI [50]: > 100 µM; TGI [51]: > 100 µM; TGI [52]: > 100 µM

Question: For O=C1C(Cl)C(c2cc3cc(Br)ccc3nc2Cl)N1c1ccc(F)c(Cl)c1 (stereo not drawn), which TGI [1] is on record?
Answer: 26.5 µM

Question: What about the TGI [3] of the same compound?
Answer: 21.7 µM

Question: What about the TGI [4] of the same compound?
Answer: 43.5 µM

Question: What about the TGI [5] of the same compound?
Answer: 2.61 µM

Question: What about the TGI [6] of the same compound?
Answer: 33 µM

Question: What about the TGI [7] of the same compound?
Answer: 21.4 µM

Question: And the TGI [8]?
Answer: 24.8 µM

Question: What about the TGI [9] of the same compound?
Answer: 2.25 µM

Question: What about the TGI [10] of the same compound?
Answer: 17.7 µM

Question: What about the TGI [11] of the same compound?
Answer: 3.62 µM

Question: And the TGI [12]?
Answer: 2.14 µM

Question: And the TGI [13]?
Answer: 34.2 µM

Question: And the TGI [53]?
Answer: 23.1 µM

Question: And the TGI [15]?
Answer: 12.8 µM

Question: And the TGI [16]?
Answer: 22.1 µM

Question: What about the TGI [17] of the same compound?
Answer: 18.6 µM

Question: And the TGI [18]?
Answer: 4.96 µM

Question: And the TGI [19]?
Answer: 7.77 µM

Question: What about the TGI [20] of the same compound?
Answer: 23.5 µM

Question: And the TGI [21]?
Answer: 0.719 µM

Question: And the TGI [54]?
Answer: 22.8 µM

Question: What about the TGI [22] of the same compound?
Answer: 40.2 µM

Question: What about the TGI [23] of the same compound?
Answer: 54 µM

Question: What about the TGI [24] of the same compound?
Answer: 6.39 µM

Question: What about the TGI [25] of the same compound?
Answer: 4.74 µM

Question: And the TGI [55]?
Answer: 21.2 µM

Question: And the TGI [26]?
Answer: 25.7 µM

Question: What about the TGI [27] of the same compound?
Answer: 27.6 µM

Question: And the TGI [28]?
Answer: 19 µM

Question: And the TGI [29]?
Answer: 17 µM

Question: What about the TGI [56] of the same compound?
Answer: 22.5 µM

Question: And the TGI [30]?
Answer: 27.4 µM

Question: What about the TGI [57] of the same compound?
Answer: 26.9 µM

Question: And the TGI [31]?
Answer: 17 µM

Question: And the TGI [32]?
Answer: 21.8 µM

Question: And the TGI [33]?
Answer: 15.1 µM

Question: And the TGI [34]?
Answer: 75 µM

Question: And the TGI [35]?
Answer: 20.1 µM

Question: What about the TGI [36] of the same compound?
Answer: 34.5 µM

Question: And the TGI [37]?
Answer: 18.9 µM

Question: And the TGI [38]?
Answer: 3.66 µM

Question: What about the TGI [39] of the same compound?
Answer: 0.29 µM

Question: And the TGI [40]?
Answer: 24.4 µM

Question: What about the TGI [41] of the same compound?
Answer: 2.72 µM

Question: What about the TGI [42] of the same compound?
Answer: 12.5 µM

Question: And the TGI [43]?
Answer: 24.8 µM

Question: And the TGI [44]?
Answer: 29.8 µM

Question: And the TGI [59]?
Answer: 20.5 µM

Question: What about the TGI [45] of the same compound?
Answer: 24.2 µM

Question: And the TGI [46]?
Answer: 17.3 µM

Question: And the TGI [47]?
Answer: 19.8 µM

Question: What about the TGI [48] of the same compound?
Answer: 25.9 µM

Question: What about the TGI [49] of the same compound?
Answer: 14.2 µM

Question: What about the TGI [50] of the same compound?
Answer: 22.3 µM

Question: And the TGI [51]?
Answer: 5.23 µM

Question: And the TGI [52]?
Answer: 23.4 µM
